Values after ≈ are worked out from the molar mass of the structure shown. “Also recorded” adds a separate entry of the source. Read-outs that look alike come from different tables or passages of the source. Where a SMILES comes first, the peptide text is derived from it. The star is where a group is joined. Boc = CC(C)(C)OC(=O)*
What was measured:
oxyHb = oxyHb (Homo sapiens, UniProt P68871+P69905); assay: Effect of compounds on the oxyHb absorption spectrum (oxidation of oxyHb to metHb); assay type: biochemical; conditions: 1 mM compound, 10 µM oxyHb, 4 °C
Experimental: Absorption spectra of the commercial compounds alone or in the presence of oxyHb were recorded with a microplate reader (TECAN Spark® 10 M) in a 384-well, UV-transparent microplate (Greiner UV-STAR® plate—781801). The compounds were diluted in binding buffer to a 2 mM concentration, and the pH of the solutions was adjusted in the range 6.5–7.5. Compounds were then tested at 1 mM concentration to assess for any absorbance around 450 nm that might interfere with the immunoassay. The effect of compounds on the oxyHb spectrum was assessed under the same conditions in the presence of 10 µM oxyHb. […] All the incubation steps were performed at 4 °C, as in the immunoassay. Spectra were subtracted from the contribution of the blank and the compound.
Absorption spectra of the compounds in solution were collected between 350 and 700 nm to exclude any interference with the determination of Hb oxidation (vide infra) and with the absorbance measurement at 450 nm of the immunoassay (Fig. S4). The absorption spectra of Hb solutions were collected in the Q bands region, between 450 and 650 nm, and compounds were added at a final concentration of 1 mM and incubated for 2 h at 4 °C, before the acquisition of the final spectrum (Fig. S5). These Hb absorption bands are sensitive to the redox status of the protein and thus allowed to ascertain whether the tested compounds interfere with the analysis by accelerating the oxidation of oxyHb to metHb, which in turn is susceptible to heme extraction by IsdB, thus introducing an artifact in the assay.

Compound solubilisation = assay type: physicochemical; conditions: for solubility (in words): solvent as stated in the sentence
Experimental: The commercial compounds were solubilized in aqueous solutions to reach a 50 mM concentration, taking advantage of the pH and concentration-solubility profile estimated by Chemicalize (https://chemicalize.com/ developed by ChemAxon). When the molecules resulted partially or completely insoluble, the pH was adjusted based on their estimated pH-solubility profiles using either HCl or NaOH concentrated stocks. A cycle of sonication with an ultrasonic bath (Bormac CE-5700, 41300303) was performed for those compounds that resulted insoluble after pH adjustment. If sonication was insufficient, compounds were also heated in a thermoblock at 60 °C for ten minutes. For the compounds that were still not soluble, D6-DMSO was added. For some compounds, complete solubilization required to decrease the concentration of the stock solution. In Table 2 are reported the compounds that required dilution and/or addition of DMSO for solubilization.
(§1) The in-house synthesized compounds were solubilized at 100 mM concentration in D6-DMSO. We indicated with an asterisk (*) the in-house synthesized compounds to distinguish them from the commercial ones. […]. Molecules that resulted partially or completely insoluble were subjected to the same procedure followed for the commercial molecules, except for pH adjustments. The compounds that were highly insoluble were produced as TRIS salts.

[1] = Stability of dissolved compound by NMR and liquid chromatography; assay type: physicochemical
Experimental: as §1

HbCO = HbCO (Homo sapiens, UniProt P68871+P69905); assay: STD-NMR binding to Hb; conditions: 20 µM Hb (heme), 25 °C; for quality of the peaks in the STD spectrum: 1 mM commercial compound; for binding to HbCO by STD-NMR (peaks in STD spectra): 1 mM compound
[2] = target: T1, IsdB:Hb complex (Y165A IsdB, oxyHb) (Homo sapiens, UniProt P68871+P69905); assay: IsdB-based immunoassay for IsdB:Hb complex formation (screening of potential inhibitors); assay type: binding, Staphylococcus aureus IsdB; human Hb; conditions: 30 µM oxyHb; for average percent of Hb bound to IsdB: commercial compounds at 1 mM, relative to negative control; for percentage of IsdB-bound Hb: in-house synthesized compounds at 1 mM
T1 construct: made in house
Experimental: Commercial and synthesized compounds were tested at 1 mM concentration.
Figure 6 Screening of the in silico identified compounds by the IsdB-based immunoassay. […] The lines at 100% and 50%, drawn as reference, were calculated from the absorbance signal at 450 nm measured on the negative control well (i.e. oxyHb incubated without the addition of compounds). Each measurement is the average of at least 2 replicates.
Each measurement is the average of at least two replicates. […] Color code indicates derivatives from a common parent compound indicated with the asterisk.

[3] = 50% D6-DMSO final concentration

NC(=O)C1CCN(CC(O)COc2ccc(OCC(O)CN3CCC(C(N)=O)CC3)cc2)CC1 (centres unmarked) [Compound C12]
oxidation of Hb upon a 2-h incubation (oxyHb): small effects

NNC(=O)C(=NNc1ccccc1C(=O)NN)C(=O)NN [Compound C17]
oxidation of Hb upon a 2-h incubation (oxyHb): small effects | Stock H2O (Compound solubilisation; [3]): 25 (50% D6-DMSO final concentration) mM

CC(C)CC(NC(=O)C(Cc1ccccc1)NC(=O)CNC(=O)CNC(=O)OC(C)(C)C)C(=O)NC(CCCN=C(N)N)C(=O)O (centres unmarked) [Compound C28] (Boc-GGFLR-OH; configuration not given here)
oxidation of Hb upon a 2-h incubation (oxyHb): small effects | Stock H2O (Compound solubilisation; [3]): 25 (50% D6-DMSO final concentration) mM

NC(=O)Cn1cc(NC(=O)NC2CCC(O)CC2)cn1 (centres unmarked) [Compound C34]
Stock H2O (Compound solubilisation): 33 (50% D6-DMSO final concentration) mM

O=C(CSc1nnc(-c2c[nH]c3ccccc23)o1)Nc1ccc(C(=O)O)cc1 [Compound C35]
stability by NMR and liquid chromatography ([1]; dissolved in D6-DMSO): stable | stability in solution ([1]; dissolved in alkaline aqueous solution): underwent a rearrangement | solubility (Compound solubilisation; aqueous buffer, kinetic from dmso stock, 50 mM HEPES buffer, pH 7.6, diluted from 100 mM DMSO stock, read-out: concentration at which the compound was soluble): 500 µM (≈ 197 µg/mL) | solubility (in words) (Compound solubilisation): poorly soluble in water

Cc1[nH]ncc1C(=O)NCc1cc(OC2CCNC2)ccn1 (centres unmarked) [Compound C41]
quality of the peaks in the STD spectrum (HbCO): very weak peaks | binding to HbCO by STD-NMR (peaks in STD spectra) (HbCO): gave peaks in the STD spectra; also recorded: only a methyl group was binding to Hb | average percent of Hb bound to IsdB [2]: lower than 55%

NC(=O)NC(=O)CCCSc1nnc(N)s1 [Compound C44]
quality of the peaks in the STD spectrum (HbCO): very weak peaks | binding to HbCO by STD-NMR (peaks in STD spectra) (HbCO): gave peaks in the STD spectra | Stock H2O (Compound solubilisation; [3]): 44 (50% D6-DMSO final concentration) mM | solubility (in words) (Compound solubilisation): solubility issues | solubility (in words) (Compound solubilisation; listed as C44*): difficult to dissolve in DMSO | average percent of Hb bound to IsdB [2]: lower than 55% | percentage of IsdB-bound Hb [2]: above 60%

NC(=O)COc1ccc(CNC2CCCN(c3cccnn3)C2)cc1 (centres unmarked) [Compound C50]
binding to HbCO by STD-NMR (peaks in STD spectra) (HbCO): no peaks were observed | average percent of Hb bound to IsdB [2]: lower than 55%

COC(=O)c1[nH]n(-c2ccc(C(=O)O)cc2)c(=O)c1CCO [Compound C53]
quality of the peaks in the STD spectrum (HbCO): very weak peaks | binding to HbCO by STD-NMR (peaks in STD spectra) (HbCO): gave peaks in the STD spectra | binding to HbCO by STD-NMR (peaks in STD spectra) (HbCO; listed as C53*): confirmed binding to HbCO | solubility (in words) (Compound solubilisation): solubility issues | average percent of Hb bound to IsdB [2]: lower than 55% | percentage of IsdB-bound Hb [2]: above 60%

CC(C)(Sc1nnc(-c2c[nH]c3ccccc23)o1)C(=O)Nc1ccc(C(=O)O)cc1 [Compound C59]
solubility (in words) (Compound solubilisation): poorly soluble

Cn1cc(-c2nnc(SCC(=O)Nc3ccc(C(=O)O)cc3)o2)c2ccccc21 [Compound C61]
solubility (in words) (Compound solubilisation): poorly soluble

O=C(CSc1nnc(-c2c[nH]c3ncccc23)o1)Nc1ccc(C(=O)O)cc1 [Compound C63]
solubility (in words) (Compound solubilisation): poorly soluble

O=C(O)Cn1cc(-c2nnc(SCC(=O)Nc3ccc(C(=O)O)cc3)o2)c2ccccc21 [Compound C65]
solubility (in words) (Compound solubilisation): poorly soluble

From publication PMC11003968, “Identification of small molecules affecting the interaction between human hemoglobin and Staphylococcus aureus IsdB hemophore” (Scientific Reports, 2024)
